# How the values were obtained:
# [1] = system: excised cotton leaves at different developmental stages; assay: Ethylene-induced chlorophyll degradation in leaves of mature cotton plants; type: in vivo, cotton (Gossyium hirsutum barbadense L.)
# Protocol: (§1) (1) Abscission—This is a very sensitive model system for studying the effects of plant hormones. Ethylene induces the process of abscission, while auxin delays it. In the laboratory the experimental system is based on plant organ explants, which include the abscission zone. Abscission is induced by exposure to ethylene and at the termination of the experiment the number of abscised organs, usually either leaf blades or petioles are counted and the fraction of abscission is calculated. In the case of fruit, the decrease in fruit retention force is analyzed. In cotton, when WS-CPD (the ethylene-action antagonist herein disclosed) is tested, the whole plants or explants are pretreated by spraying with the antagonist, dissolved in a phosphate buffer solution (10-20 mM, pH 7.0) including 0.1% commercially available Kinetic™ as surfactant, and left to incubate for a predetermined time, usually between 6 and 24 h. The plants or explants are then further exposed for 24 h to ethylene gas (5 to 20 μL L^−1). The plants or explants are then ventilated and incubated for the required time under controlled conditions. At the end of the experiment the percentage of abscission is determined. (2) Chlorophyll degradation—This is a standard model for studying senescence. Plant material (whole plants, excised leaves or leaf discs) are pretreated. In cotton, tobacco and wheat, when WS-CPD is tested, the whole plants or explants are pretreated by spraying with the antagonist, dissolved in phosphate buffer solution (10-20 mM, pH 7.0) including 0.1% commercially available Kinetic™ surfactant, and left to incubate for a predetermined time, usually between 6 and 241. The plants or explants are then further exposed for 24 h to ethylene gas (1 to 100 μL L^−1), or sprayed with Ethephon™ (wheat; 250 to 750 μL L^−1). The plants or explants are then ventilated and incubated for the required time under controlled conditions. At the end of the experiment a dimethylsulfoxide (DMSO) extract of the plant tissue is prepared, and the chlorophyll content of the extract is determined by spectrophotometric analysis. The chlorophyll content is reported either on a fresh, dry weight basis, or on a surface area basis. (3) Epinasty—This is also one of the classical methods for studying ethylene effects in plants. The extent of ethylene-induced epinasty of leaves is determined by measuring the change of the angle between the petiole and the stem shoot or blade. After exposure of the intact plant to ethylene, the upright grown leaves bend downward. The increase in the angle values (degrees) between petiole and the stem is used as a measure of the effect of the ethylene. […]
# pKa and ionisation state = type: physicochemical
# Source text: The IR spectrum (FIG. 60), UV-VIS spectrum (FIG. 61), and potentiometric titration (FIG. 62) are all consistent with the structure given above for WS-CPD. The IR peak of WS-CPD at C1=1773 cm^−1, and the peak of the C═O stretch in the IR and the UV-VIS peak is λmax 206nm.
# Thus, under the normal conditions of use, e.g., pH 7.6-7.8, more than 99% of the compound is present in the anion form. […] The XRD pattern was obtained in a Rigaku Ultima sealed tube theta-theta diffractometer operating at a power level of 1.6 kW, with a step size of 0.02°, angular range of 10-60°, and speed of 0.5°/min. Analysis of the XRD pattern was performed using the Jade 8 program (MDI, Inc.). From the diffraction pattern, it appears that the powdered material is not homogeneous, but rather that there appear to be three distinct structural forms present, namely, an amorphous form, a poor quality crystalline form, and a crystalline form. The presence of the amorphous form is indicated by the prominent diffuse peak centered at 2θ˜23°. Superimposed on this broad peak are a number of sharp peaks, indicating the presence of a crystalline form. […] The effective crystallite sizes of the crystalline form were calculated using the Scherrer formula and found to be in the range of 300-700 Å. […] The following volume fractions were measured: amorphous—57.5%; poorly crystalline—39.5%; crystalline—3%. […]
# tobacco seedlings = assay: Ethylene-induced leaf yellowing (senescence) of young tobacco seedlings; type: in vivo, tobacco (Nicotiana tabacum var. 'Samsun'); conditions: for ethylene-induced senescence (leaf yellowing): ethylene 10 μL L^−1
# Protocol: as §1, with “The plants or explants are then further exposed for 24 h to ethylene gas (1 to 100 μL L^−1), or sprayed with Ethephon™ (wheat; 250 to 750 μL L^−1). The plants or explants are then ventilated and incubated for the required time under controlled conditions.” left out, “The chlorophyll content is reported either on a fresh, dry weight basis, or on a surface area basis. (3) Epinasty—This is also one of the classical methods for studying ethylene effects in plants.” left out, “blade.” for “blade. After exposure of the intact plant to ethylene, the upright grown leaves bend downward. The increase in the angle values (degrees) between petiole and the stem is used as a measure of the effect of the ethylene.”
# wheat plants = assay: Wheat grain weight at the milky stages after Ethephon treatment; type: in vivo, wheat (Triticum turgidum var. 'Gdera'); conditions: for grain yield increase by antagonizing Ethephon: fresh weight basis
# Protocol: as §1, with “ethylene. When WS-CPD is tested on cotton and wheat plants, the whole plants are pretreated by spraying with the antagonist dissolved in phosphate buffer solution (10-20 mM, pH 7.6) including 0.1% Kinetic™ as surfactant, and left to incubate for a predetermined time, usually between 6 and 24 h. The plants are then further exposed for 24 h to ethylene gas (cotton, 5 to 10 μL L^−1), or sprayed with Ethephon™ (wheat, 250 to 750 μL L^−1). The plants are then ventilated and incubated for the required time under controlled conditions. The epinastic effect is expressed by measuring the degree values of the downward curvature between the blade and petiole (cotton, FIGS. 1-3) or between the blade and the stem (wheat, FIGS. 31 and 32). (4) Wheat Grain yield—This is a common test of the effects of exposure of monocot plants either to environmental stresses such as drought that induce senescence by increasing endogenous ethylene production. Excessive internal or external ethylene will accelerate senescence which will lead to reduced grain yield. In this project the intact plants were grown in the greenhouse up to the spike hading at milky stage I and II. The plants were then sprayed with the dissolved WS-CPD in phosphate buffer solution (10 mM, pH 7.6) including 0.1% Kinetic™ as surfactant. Young Cotton Seedlings” for “ethylene.”
structure (smiles),measurement,setting,value
"O=C([O-])CCC1=CC1.[Na+] [WS-CPD, 3-cyclopropyl-1-enyl-propanoic sodium salt]",ethylene-induced chlorophyll degradation,"[1]; mature leaves, WS-CPD 480 μg L^−1 (so in the source)",less effective
same,inhibition of ethylene-induced chlorophyll degradation,"[1]; mature leaves, WS-CPD 90 and 240 μg mL^−1",95%
same,ethylene-induced chlorophyll degradation,"[1]; young leaves, WS-CPD 10 μg mL^−1, ethylene 10 μL L^−1",completely antagonized
same,ethylene-induced chlorophyll degradation,"[1]; young leaves, WS-CPD 270 μg mL^−1",less effective
same,pKa,pKa and ionisation state; ambient temperature,> 4.5
same,fraction of the compound present in the anion form,pKa and ionisation state; pH 7.6-7.8,more than 99%
same,ethylene-induced senescence (leaf yellowing),tobacco seedlings; WS-CPD 14 μg mL^−1,antagonized the ethylene-induced senescence only in mature leaves
same,ethylene-induced senescence (leaf yellowing),"tobacco seedlings; WS-CPD 127 μg mL^−1, young leaves",slightly effective
same,leaf yellowing,"tobacco seedlings; WS-CPD 14 to 127 μg mL^−1, ethylene 20 μL L^−1",very significantly inhibited
same,Ethephon-induced decrease of grain weight,"wheat plants; WS-CPD 135 μg mL^−1 pretreatment at milky stage I, both milky stages",prevented the decrease
same,overcoming the Ethephon reduction in grain weight,wheat plants; WS-CPD 80 to 180 μg mL^−1,best results
same,grain yield increase by antagonizing Ethephon,wheat plants; milky stage I,ca. 5%
same,grain yield increase by antagonizing Ethephon,wheat plants; milky stage II,ca. 16%
